{"source": "patent US5939424A", "about": "“Compounds for treating disorders of lipid metabolism and their preparation” (Hoechst Aktiengesellschaft, priority 1996, dated 1999)", "note": "Where a name gives a salt, the structure may show the parent alone."}
{"system": "LDL receptor mRNA", "experiment": "LDL receptor mRNA levels in rat livers (Northern blot, β-actin as internal standard)", "format": "in vivo", "conditions": "rat liver, 30 mg/kg, 6 hours after administration; untreated control = 100%", "protocol": "To test the ability of the inventive compounds to lower plasma lipid levels, the stimulation of LDL receptor mRNA production was chosen as a surrogate. Thus, in rat livers, within a few hours the LDL receptor mRNA levels are increased by the compounds of the formula I (Table I). The stimulation is in the range from 170 to 350% of the controls (control=100%).\nThe preparation of the mRNA was carried out according to the method of Chomczynski, P. and Sacchi, N., Anal. Biochem. 162, 156-159 (1987). In organs (such as, for example, liver), the deep-frozen tissue was homogenized on dry ice beforehand in a mortar and the mRNA was further enriched by means of Oligo dT according to standard methods (cf. Sambrook, J., Fritsch, E. F. and Maniatis, T., Molecular Cloning, second Edition, Cold Spring Harbor (1989); in this collection of methods, there are also descriptions of all further relevant molecular biology standard methods used here). Five to […] of the dissolved mRNA thus obtained were denatured according to standard methods and separated on 1% horizontal agarose gels. The mRNA was transferred to Hybond N membranes (Amersham) by means of capillary blot. The specific hybridization probe used was a partial LDL receptor cDNA clone and the internal standard a plasmid which contained a β-actin gene. Both plasmids were labeled by means of a random primer kit from Amersham up to a specific activity of 5×10^9 cpm/mg. Prehybridization, hybridization and washing of the filters were carried out by standard methods. The filters were then exposed at -70° C. on Cronex 4 films (Dupont) overnight up to 14 days in the presence of an intensifying screen and the hybridization signals were quantified using a commercial laser densitometer by means of the film-blackening intensity. The quotient of the intensity of the LDL receptor band and of the actin band was then determined as an internal standard to correct yield variations.\nLiver tissue was removed and shock-frozen in liquid nitrogen. The mRNA was then isolated as described, and the relative LDL receptor mRNA levels were determined by means of the Northern blot technique. The mRNA levels of untreated control animals were set at 100%, and the stimulation of the LDL receptor mRNA in percent of the control was calculated.", "units": {"LDL receptor mRNA (stimulation in percent of the control)": "%"}}
{"smiles": "CC1(C)CN(c2ncc(C(=O)N(CC(F)(F)F)c3cccc(OC(F)(F)F)c3)c(N)n2)C(=O)N1", "note": "[Example 4, 4-Amino-2-(4,4-dimethylimidazolidin-2-on-1-yl)-5-[N-(2,2,2-trifluoroethyl)-N-(3-trifluoromethoxyphenyl)]-pyrimidinecarboxamide]", "LDL receptor mRNA (stimulation in percent of the control)": 230}
{"smiles": "CC1(C)CN(c2ncc(C(=O)Nc3cccc(SC(F)(F)F)c3)c(N)n2)C(=O)N1", "note": "[Example 22, 4-Amino-2-(4,4-dimethylimidazolidin-2-on-1-yl)-5-[N-(3-trifluorothiomethyl-phenyl)]pyrimidinecarboxamide-hydrochloride]", "LDL receptor mRNA (stimulation in percent of the control)": 235}
{"smiles": "CC1(C)CN(c2ncc(C(=O)Nc3ccc4c(c3)OC(F)(F)C(F)(F)O4)c(N)n2)C(=O)N1", "note": "[Example 15, 4-Amino-2-(4,4-dimethylimidazolidin-2-on-1-yi)-5-[N-(2,2,3,3-tetrafluorobenzo-1,4-dioxan-6-yl)]-pyrimidinecarboxamide hydrochloride]", "LDL receptor mRNA (stimulation in percent of the control)": 242}
{"smiles": "CC1(C)CN(c2ncc(C(=O)Nc3ccc4c(c3)OC(F)(F)O4)c(N)n2)C(=O)N1", "note": "[Example 14, 4-Amino-2-(4,4-dimethylimidazolidin-2-on-1-yl)-5-[N-(2,2-difluorobenzo-1,3-dioxol-5-yl)]pyrimidinecarboxamide-hydrochloride]", "LDL receptor mRNA (stimulation in percent of the control)": 250}
{"smiles": "CC1(C)CN(c2ncc(C(=O)Nc3cccc(OC(F)(F)F)c3)c(N)n2)C(=O)N1", "note": "[Example 2, 4-Amino-2-(4,4-dimethylimidazolidin-2-on-1-yl)-5-(3-trifluoromethoxyphenylpyrimidine)carboxamide]", "LDL receptor mRNA (stimulation in percent of the control)": 250}
{"smiles": "CCN(C(=O)c1cnc(N2CC(C)(C)NC2=O)nc1N)c1cccc(OC(F)(F)F)c1", "note": "[Example 3, 4-Amino-2-(4,4-dimethyl-2-oxo-1-imidazolidin-2-on-1-yl)-5-[N-ethyl-N-(3-trifluoromethoxy)phenyl]pyrimidinecarboxamide hydrochloride]", "LDL receptor mRNA (stimulation in percent of the control)": 235}
